Experimental data from patent publication US20070128217A1 (priority 2003, published 2007).

Experiments:
[1] = test system: antibodies in sera from SARS patients (sera 1a, 1b, 2, 6, 37, 62, London, SARS-yellow, SARS-green); format: binding, human; set-up: Binding of serum 6 to linear peptides of protein X1 of SARS-CoV Urbani / Binding of serum 37 to linear peptides of protein X1 of SARS-CoV Urbani / Binding of serum 6 to looped/cyclic peptide (PEPSCAN-ELISA) / Binding of serum 37 to looped/cyclic peptide (PEPSCAN-ELISA) / Binding of serum 37 to looped/cyclic peptides of protein X1 of SARS-CoV Urbani / Binding of serum 6 to linear peptides of protein X2 / Binding of serum 37 to linear peptides of protein X2 / Binding of serum 37 to looped/cyclic peptides of protein X2 of SARS-CoV Urbani / Binding of serum 6 to linear peptides of protein M of SARS-CoV Urbani / Binding of serum 37 to linear peptides of protein M of SARS-CoV Urbani / Binding of serum 6 to looped/cyclic peptides of protein M of SARS-CoV Urbani / Binding of serum 37 to looped/cyclic peptides of protein M of SARS-CoV Urbani / Binding of serum 6 to linear peptides of protein X3 of SARS-CoV Urbani / Binding of serum 37 to linear peptides of protein X3 of SARS-CoV Urbani / Binding of serum 37 to looped/cyclic peptides of protein X3 of SARS-CoV Urbani / Binding of serum 6 to linear peptides of protein X4 of SARS-CoV Urbani / Binding of serum 37 to linear peptides of protein X4 of SARS-CoV Urbani / Binding of serum 37 to looped/cyclic peptides of protein X4 of SARS-CoV Urbani / Binding of serum 6 to linear peptides of protein X5 of SARS-CoV Urbani / Binding of serum 37 to linear peptides of protein X5 of SARS-CoV Urbani / Binding of serum 37 to looped/cyclic peptides of protein X5 of SARS-CoV Urbani / Binding of serum 6 to linear peptides of protein N of SARS-CoV Urbani / Binding of serum 37 to linear peptides of protein N of SARS-CoV Urbani / Binding of serum 6 to linear peptide (PEPSCAN-ELISA) / Binding of serum 1a to looped/cyclic peptides of protein N of SARS-CoV Urbani / Binding of serum 1b to looped/cyclic peptides of protein N of SARS-CoV Urbani / Binding of serum 2 to looped/cyclic peptides of protein N of SARS-CoV Urbani / Binding of serum 6 to looped/cyclic peptides of protein N of SARS-CoV Urbani / Binding of serum 37 to looped/cyclic peptides of protein N of SARS-CoV Urbani / Binding of serum 62 to looped/cyclic peptides of protein N of SARS-CoV Urbani / Binding of serum London to looped/cyclic peptides of protein N of SARS-CoV Urbani / Binding of serum SARS-green to looped/cyclic peptides of protein N of SARS-CoV Urbani: unit not given here
[2] = test system: control sera (pooled serum of ten healthy LUMC hospital workers; commercial negative donor pooled serum from the Dutch bloodbank); format: binding, human; set-up: Binding of Control serum LUMC to linear peptides / Binding of Control serum Blood-bank to linear peptides / Binding of Control serum LUMC to looped peptides / Binding of Control Serum Blood-Bank to Looped peptides / Binding of Control serum LUMC to linear peptides of the protein M of SARS-CoV Urbani / Binding of Control serum Blood-bank to linear peptides of the protein M of SARS-CoV Urbani / Binding of Control serum LUMC to looped peptides of the protein M of SARS-CoV Urbani / Binding of Control Serum Blood-Bank to Looped peptides of the protein M of SARS-CoV Urbani: unit not given here
[3] = test system: rabbit serum obtained by immunizing a rabbit with the SARS-CoV strain Frankfurt 1; format: binding; set-up: Binding of a rabbit serum to linear peptides / Binding of a rabbit serum to looped peptides / Rabbit serum linear peptides / Rabbit serum looped peptides / Binding of a rabbit serum to linear peptides of protein N of SARS-CoV Urbani (Rabbit serum linear peptides) / Binding of a rabbit serum to looped/cyclic peptides of protein N of SARS-CoV Urbani (Rabbit serum looped peptides): unit not given here

TQITTDTGIENATFF
Binding of serum 1a to linear peptides of protein X1 of SARS-CoV Urbani [1]: 0.7
Binding of serum 1a to looped/cyclic peptides of protein X1 of SARS-CoV Urbani [1]: 0.5
Binding of serum 1b to linear peptides of protein X1 of SARS-CoV Urbani [1]: 0.6
Binding of serum 1b to looped/cyclic peptides of protein X1 of SARS-CoV Urbani [1]: 0.3
Binding of serum 2 to linear peptides of protein X1 of SARS-CoV Urbani [1]: 0.5
Binding of serum 2 to looped/cyclic peptides of protein X1 of SARS-CoV Urbani [1]: 0.2
Binding of serum 6 to linear peptides of protein X1 of SARS-CoV Urbani [1]: 0.6
Binding of serum 6 to looped/cyclic peptides of protein X1 of SARS-CoV Urbani [1]: 0.3
Binding of serum 37 to linear peptides of protein X1 of SARS-CoV Urbani [1]: 0.7
Binding of serum 37 to looped/cyclic peptides of protein X1 of SARS-CoV Urbani [1]: 0.4
Binding of serum 62 to linear peptides of protein X1 of SARS-CoV Urbani [1]: 0.5
Binding of serum 62 to looped/cyclic peptides of protein X1 of SARS-CoV Urbani [1]: 0.5
Binding of serum London to linear peptides of protein X1 of SARS-CoV Urbani [1]: 0.3
Binding of serum London to looped/cyclic peptides of protein X1 of SARS-CoV Urbani [1]: 0.2
Binding of serum SARS-green to linear peptides of protein X1 of SARS-CoV Urbani [1]: 0.7
Binding of serum SARS-green to looped/cyclic peptides of protein X1 of SARS-CoV Urbani [1]: 0.3
Binding of serum SARS-yellow to linear peptides of protein X1 of SARS-CoV Urbani [1]: 0.5
Binding of serum SARS-yellow to looped/cyclic peptides of protein X1 of SARS-CoV Urbani [1]: 0.4
Binding of Control Serum Blood-Bank to Looped peptides [2]: 0.5
Binding of Control serum Blood-bank to linear peptides [2]: 0.6
Binding of Control serum LUMC to linear peptides [2]: 0.8
Binding of Control serum LUMC to looped peptides [2]: 0.5
Binding of a rabbit serum to linear peptides [3]: 0.1
Binding of a rabbit serum to looped peptides [3]: 0.6

CFVLAAVYRINWVTG
Binding of serum 1a to linear peptides of protein M of SARS-CoV Urbani [1]: 0.8
Binding of serum 1a to looped/cyclic peptides of protein M of SARS-CoV Urbani [1]: 0.6
Binding of serum 1b to linear peptides of protein M of SARS-CoV Urbani [1]: 0.6
Binding of serum 1b to looped/cyclic peptides of protein M of SARS-CoV Urbani [1]: 0.6
Binding of serum 2 to linear peptides of protein M of SARS-CoV Urbani [1]: 0.6
Binding of serum 2 to looped/cyclic peptides of protein M of SARS-CoV Urbani [1]: 0.5
Binding of serum 6 to linear peptides of protein M of SARS-CoV Urbani [1]: 0.6
Binding of serum 6 to looped/cyclic peptides of protein M of SARS-CoV Urbani [1]: 0.8
Binding of serum 37 to linear peptides of protein M of SARS-CoV Urbani [1]: 0.4
Binding of serum 37 to looped/cyclic peptides of protein M of SARS-CoV Urbani [1]: 0.6
Binding of serum 62 to linear peptides of protein M of SARS-CoV Urbani [1]: 0.4
Binding of serum 62 to looped/cyclic peptides of protein M of SARS-CoV Urbani [1]: 0.7
Binding of serum London to linear peptides of protein M of SARS-CoV Urbani [1]: 0.4
Binding of serum London to looped/cyclic peptides of protein M of SARS-CoV Urbani [1]: 0.2
Binding of serum SARS-green to linear peptides of protein M of SARS-CoV Urbani [1]: 0.5
Binding of serum SARS-green to looped/cyclic peptides of protein M of SARS-CoV Urbani [1]: 0.3
Binding of serum SARS-yellow to linear peptides of protein M of SARS-CoV Urbani [1]: 0.2
Binding of serum SARS-yellow to looped/cyclic peptides of protein M of SARS-CoV Urbani [1]: 0.4
Binding of Control Serum Blood-Bank to Looped peptides of the protein M of SARS-CoV Urbani [2]: 0.6
Binding of Control serum Blood-bank to linear peptides of the protein M of SARS-CoV Urbani [2]: 0.7
Binding of Control serum LUMC to linear peptides of the protein M of SARS-CoV Urbani [2]: 0.6
Binding of Control serum LUMC to looped peptides of the protein M of SARS-CoV Urbani [2]: 0.8
Rabbit serum linear peptides [3]: 0.2
Rabbit serum looped peptides [3]: 0.1

THFAFACADGTRHTY
Binding of serum 1a to linear peptides of protein X4 of SARS-CoV Urbani [1]: 0.7
Binding of serum 1a to looped/cyclic peptides of protein X4 of SARS-CoV Urbani [1]: 0.7
Binding of serum 1b to linear peptides of protein X4 of SARS-CoV Urbani [1]: 0.5
Binding of serum 1b to looped/cyclic peptides of protein X4 of SARS-CoV Urbani [1]: 0.5
Binding of serum 2 to linear peptides of protein X4 of SARS-CoV Urbani [1]: 0.5
Binding of serum 2 to looped/cyclic peptides of protein X4 of SARS-CoV Urbani [1]: 0.5
Binding of serum 6 to linear peptides of protein X4 of SARS-CoV Urbani [1]: 0.6
Binding of serum 6 to looped/cyclic peptides of protein X4 of SARS-CoV Urbani [1]: 0.5
Binding of serum 37 to linear peptides of protein X4 of SARS-CoV Urbani [1]: 0.6
Binding of serum 37 to looped/cyclic peptides of protein X4 of SARS-CoV Urbani [1]: 0.6
Binding of serum 62 to linear peptides of protein X4 of SARS-CoV Urbani [1]: 0.7
Binding of serum 62 to looped/cyclic peptides of protein X4 of SARS-CoV Urbani [1]: 0.6
Binding of serum London to linear peptides of protein X4 of SARS-CoV Urbani [1]: 0.7
Binding of serum London to looped/cyclic peptides of protein X4 of SARS-CoV Urbani [1]: 0.3
Binding of serum SARS-green to linear peptides of protein X4 of SARS-CoV Urbani [1]: 0.5
Binding of serum SARS-green to looped/cyclic peptides of protein X4 of SARS-CoV Urbani [1]: 0.4
Binding of serum SARS-yellow to linear peptides of protein X4 of SARS-CoV Urbani [1]: 0.2
Binding of serum SARS-yellow to looped/cyclic peptides of protein X4 of SARS-CoV Urbani [1]: 0.5
Binding of Control Serum Blood-Bank to Looped peptides [2]: 0.7
Binding of Control serum Blood-bank to linear peptides [2]: 0.7
Binding of Control serum LUMC to linear peptides [2]: 0.7
Binding of Control serum LUMC to looped peptides [2]: 0.7
Rabbit serum linear peptides [3]: 0.4
Rabbit serum looped peptides [3]: 0.5

IDGSSGVANPAMDPI
Binding of serum 1a to linear peptides of protein X1 of SARS-CoV Urbani [1]: 0.7
Binding of serum 1a to looped/cyclic peptides of protein X1 of SARS-CoV Urbani [1]: 0.8
Binding of serum 1b to linear peptides of protein X1 of SARS-CoV Urbani [1]: 0.6
Binding of serum 1b to looped/cyclic peptides of protein X1 of SARS-CoV Urbani [1]: 0.7
Binding of serum 2 to linear peptides of protein X1 of SARS-CoV Urbani [1]: 0.7
Binding of serum 2 to looped/cyclic peptides of protein X1 of SARS-CoV Urbani [1]: 0.5
Binding of serum 6 to linear peptides of protein X1 of SARS-CoV Urbani [1]: 0.5
Binding of serum 6 to looped/cyclic peptides of protein X1 of SARS-CoV Urbani [1]: 0.3
Binding of serum 37 to linear peptides of protein X1 of SARS-CoV Urbani [1]: 0.6
Binding of serum 37 to looped/cyclic peptides of protein X1 of SARS-CoV Urbani [1]: 0.7
Binding of serum 62 to linear peptides of protein X1 of SARS-CoV Urbani [1]: 0.6
Binding of serum 62 to looped/cyclic peptides of protein X1 of SARS-CoV Urbani [1]: 0.6
Binding of serum London to linear peptides of protein X1 of SARS-CoV Urbani [1]: 0.4
Binding of serum SARS-green to linear peptides of protein X1 of SARS-CoV Urbani [1]: 0.3
Binding of serum SARS-green to looped/cyclic peptides of protein X1 of SARS-CoV Urbani [1]: 0.6
Binding of serum SARS-yellow to linear peptides of protein X1 of SARS-CoV Urbani [1]: 0.4
Binding of serum SARS-yellow to looped/cyclic peptides of protein X1 of SARS-CoV Urbani [1]: 0.4
Binding of Control Serum Blood-Bank to Looped peptides [2]: 0.6
Binding of Control serum Blood-bank to linear peptides [2]: 0.6
Binding of Control serum LUMC to linear peptides [2]: 0.6
Binding of Control serum LUMC to looped peptides [2]: 0.7
Binding of a rabbit serum to linear peptides [3]: 0.1
Binding of a rabbit serum to looped peptides [3]: 0.5

STHFAFACADGTRHT
Binding of serum 1a to linear peptides of protein X4 of SARS-CoV Urbani [1]: 0.7
Binding of serum 1a to looped/cyclic peptides of protein X4 of SARS-CoV Urbani [1]: 0.7
Binding of serum 1b to linear peptides of protein X4 of SARS-CoV Urbani [1]: 0.6
Binding of serum 1b to looped/cyclic peptides of protein X4 of SARS-CoV Urbani [1]: 0.5
Binding of serum 2 to linear peptides of protein X4 of SARS-CoV Urbani [1]: 0.5
Binding of serum 2 to looped/cyclic peptides of protein X4 of SARS-CoV Urbani [1]: 0.6
Binding of serum 6 to linear peptides of protein X4 of SARS-CoV Urbani [1]: 0.7
Binding of serum 6 to looped/cyclic peptides of protein X4 of SARS-CoV Urbani [1]: 0.5
Binding of serum 37 to linear peptides of protein X4 of SARS-CoV Urbani [1]: 0.7
Binding of serum 37 to looped/cyclic peptides of protein X4 of SARS-CoV Urbani [1]: 0.6
Binding of serum 62 to linear peptides of protein X4 of SARS-CoV Urbani [1]: 0.8
Binding of serum 62 to looped/cyclic peptides of protein X4 of SARS-CoV Urbani [1]: 0.5
Binding of serum London to linear peptides of protein X4 of SARS-CoV Urbani [1]: 0.8
Binding of serum London to looped/cyclic peptides of protein X4 of SARS-CoV Urbani [1]: 0.3
Binding of serum SARS-green to linear peptides of protein X4 of SARS-CoV Urbani [1]: 0.6
Binding of serum SARS-green to looped/cyclic peptides of protein X4 of SARS-CoV Urbani [1]: 0.5
Binding of serum SARS-yellow to linear peptides of protein X4 of SARS-CoV Urbani [1]: 0.3
Binding of serum SARS-yellow to looped/cyclic peptides of protein X4 of SARS-CoV Urbani [1]: 0.6
Binding of Control Serum Blood-Bank to Looped peptides [2]: 0.7
Binding of Control serum Blood-bank to linear peptides [2]: 0.6
Binding of Control serum LUMC to linear peptides [2]: 0.5
Binding of Control serum LUMC to looped peptides [2]: 0.9
Rabbit serum linear peptides [3]: 0.4
Rabbit serum looped peptides [3]: 0.4
